Experimental data as given in a compilation of properties of binary mixtures (doi:10.1007/s10953-019-00842-w).

Test: xn = mol fraction of the nth substance listed
Conditions: 101 kPa

CC1COC(=O)O1 (stereo not given) + CC[n+]1ccn(C)c1.O=S(=O)([O-])C(F)(F)F
x2 = 0
Conditions | viscosity [mPa·s]
288.15 K | 3.53
298.15 K | 2.5
303.15 K | 2.2
308.15 K | 1.97
313.15 K | 1.79
318.15 K | 1.65
323.15 K | 1.538
328.15 K | 1.451
333.15 K | 1.373
338.15 K | 1.307
348.15 K | 1.201
353.15 K | 1.162

CC[n+]1ccn(C)c1.O=S(=O)([O-])C(F)(F)F + CC1COC(=O)O1
viscosity [mPa·s]
Conditions | x1 = 0.0999 | x1 = 0.1999 | x1 = 0.3005 | x1 = 0.3998 | x1 = 0.5001 | x1 = 0.601 | x1 = 0.6987 | x1 = 0.8004 | x1 = 0.8998 | x1 = 1
288.15 K | 6.25 | 8.7 | – | – | – | 24.4 | 30.7 | 39.1 | 46.9 | 59.2
293.15 K | – | 7.33 | 9.18 | 12.2 | 15.69 | 20.5 | 25.6 | – | 38.8 | 48.6
298.15 K | 4.53 | 6.2 | 7.76 | 10.37 | 13.37 | 17.6 | 21.7 | – | – | –
303.15 K | – | 5.31 | 6.65 | – | 11.43 | 15.01 | – | 23.1 | 27.6 | –
308.15 K | 3.4 | 4.57 | 5.77 | 7.65 | – | 12.99 | 16.02 | 19.9 | 23.6 | 29
313.15 K | 3.03 | 4.01 | 5.07 | 6.67 | 8.69 | 11.33 | 13.95 | 17.2 | – | –
318.15 K | 2.7 | – | – | – | – | 9.92 | 12.22 | 15.08 | – | 21.5
323.15 K | 2.42 | 3.13 | 3.94 | 5.12 | 6.8 | 8.79 | – | 13.15 | – | 18.6
328.15 K | 2.17 | – | – | – | – | – | 9.52 | 11.61 | 13.62 | 16.5
333.15 K | 2.01 | 2.52 | – | 4.07 | 5.53 | 6.99 | – | – | 12.12 | 14.61
338.15 K | 1.84 | 2.28 | 2.83 | 3.65 | 4.99 | – | 7.59 | – | 10.74 | 13.02
343.15 K | – | 2.14 | 2.6 | – | 4.51 | 5.75 | 6.92 | 8.33 | 9.66 | 11.52
348.15 K | 1.611 | 1.97 | 2.41 | 3.14 | 4.14 | 5.26 | 6.33 | 7.61 | 8.9 | 10.29
353.15 K | 1.57 | 1.89 | – | 2.94 | 3.9 | 4.9 | 5.92 | 7.17 | – | –
